Measurements taken from patent US8395037B2, “Pharmaceutical compositions for treating/preventing motor organ diseases” (Mitsubishi Corporation, priority 2005, dated 2013).

Legend:
MMP-3 [1] = test: MMP-3 production in cultured chondrocytes treated with cartilage degenerating factor (ELISA); format: cell-based, human; details: for Production of MMP-3: IL-1β or H2O2 treated chondrocytes, 50 or 100 μM, 24 h
Procedure: (§1) Chondrocytes isolated from human articular cartilage tissues were used for cultured cells. After obtaining informed consent, cartilage tissues were collected from surgically-removed tissues from eight osteoarthritis patients. The collected tissues were sliced and then treated in a liquid low-glucose Dulbecco's modified Eagle's medium (DMEM, manufactured by Gibco Co.) containing 1.5 mg/ml collagenase B at 37° C. overnight, to isolate chondrocytes for culture. The cells were normally cultured in a culture flask (culture area: 25 cm^2), and in a polystyrene culture dish (diameter: 6 cm) for use in the experiments. […]
(§2) Influence of hydroxylated C60 fullerene on cartilage matrix-degrading enzyme production which is enhanced by cartilage catabolism inducers was analyzed using the enzyme-linked immunoassay (ELISA) method.
(§3) Chondrocytes that had been isolated and cultured by the above method (1) were subjected to two passage cultures. […] After a 24 hour incubation, the culture supernatant was collected, and the concentrations of cartilage matrix-degrading enzymes, matrix metalloprotease (MMP)-1, 3, and 13, were measured.
(§4) The concentrations of MMP-1, MMP-3, and MMP-13 in the culture supernatant were determined using ELISA kits (kits for MMP-1 and MMP-3, manufactured by R&D Co.; and a kit for MMP-13, manufactured by Amersham), which is the standard technique currently known in the art. […] 100 μl of 1.5 N H3PO4 was added to each well to stop the color reaction, and the absorbance at 450 nm was measured using a microtiter plate reader. According to the instructions provided by the manufacturer, the measured concentrations were calibrated using a lyophilized control reagent.

MMP-1 = MMP-1 production in cultured chondrocytes treated with cartilage degenerating factor (ELISA); format: cell-based, human; details: for Production of MMP-1: IL-1β or H2O2 treated chondrocytes, 50 or 100 μM, 24 h
Procedure: as §1, §2, §3, §4

MMP-13 [2] = test: MMP-13 production in cultured chondrocytes treated with cartilage degenerating factor (ELISA); format: cell-based, human; details: for Production of MMP-13: IL-1β or H2O2 treated chondrocytes, 50 or 100 μM, 24 h
Procedure: as §1, §2, §3, §4

MMP-3 [3] = test: MMP-3 concentration in synovial fluid of osteoarthritis model knee joints (ELISA); format: in vivo, rabbit; details: various concentrations, sequential measurement, versus control knees
Procedure: (§5) Sequential biochemical examinations of blood and synovial fluid were also performed (pre-administration and fourth- and eighth-week post-administration of water-solubilized fullerene). The observed biochemical examination items were (A) hepatic function (GOT and GPT), renal function (urea nitrogen and creatinine), and electrolytes (Na, K, and Cl), (B) extracellular matrix-degrading enzyme production ability (MMP-1, 3, and 13), and (C) cartilage matrix-synthesizing ability (proteoglycan). The items of (A) were measured by commercially available testing equipments and items of (B) and (C) were measured by ELISA method.

cultured chondrocytes = test: Chondrocyte-proliferation ability under cartilage degenerating factors; format: cell-based; details: cultured chondrocytes treated with IL-1β and H2O2
MMP-13 [4] = test: MMP-13 concentration in synovial fluid of osteoarthritis model knee joints (ELISA); format: in vivo, rabbit; details: various concentrations, sequential measurement, versus control knees
Procedure: as §5

[5] = test system: osteoarthritis patient-derived chondrocytes; test: Cytotoxicity test (XTT method) on chondrocytes; format: cell-based, human; details: for Cell survival rate (%): relative to control (medium alone) = 100%
Procedure: Chondrocytes isolated from human articular cartilage tissues were used for cultured cells. After obtaining informed consent, cartilage tissues were collected from surgically-removed tissues from eight osteoarthritis patients. The collected tissues were sliced and then treated in a liquid low-glucose Dulbecco's modified Eagle's medium (DMEM, manufactured by Gibco Co.) containing 1.5 mg/ml collagenase B at 37° C. overnight, to isolate chondrocytes for culture. The cells were normally cultured in a culture flask (culture area: 25 cm^2), and in a polystyrene culture dish (diameter: 6 cm) for use in the experiments. The cell culture was performed using a DMEM medium added with inactivated fetal bovine serum (FBS, manufactured by TRACE Co.) at 10% volume of the medium, and also 2 mM L-glutamine, 25 mM HEPES, and penicillin and streptomycin at 100 units/ml, in either a CO2 incubator (normoxic condition) which was set at 5% CO2+95% air, or a low oxygen chamber (hypoxic condition) which was set at 1% O2+5% CO2+94% N2, at 37° C. under saturated humidity.
Influence of hydroxylated C60 fullerene on the survival rate of chondrocytes was evaluated by a cytotoxicity test (XTT method). Hydroxylated C60 fullerene (manufactured by Frontier Carbon Co.) was dissolved in polyethylene glycol to prepare a 10 mM stock, which was then stored in a dark place at −20° C. The concentration of hydroxylated C60 fullerene for the test was 1.0 μM, 10.0 μM, and 100.0 μM.
50 μl each of chondrocytes in the logarithmic growth phase were added into a 96-well microplate at the concentration of 5.0×10^5 cells/ml, and incubated in either a CO2 incubator (normoxic condition) or a low oxygen chamber (hypoxic condition) for 24 hours. Hydroxylated C60 fullerene was added into the 96-well microplate at each target concentration described above (final volume: 100 μl), and the cells were incubated for 48 hours or 96 hours. Then, the medium was replaced to remove hydroxylated C60 fullerene, and the cells were incubated for another 12 hours. To stain surviving cells, 50 μl XTT (2,3bis(2-methoxy-4-nitro-5-sulfophenyl)-5-[(phenylamino)carbonyl]-2H-tetrazolium hydroxide, inner salt) reagent was added to each well, and the cells were incubated for four hours. Immediately thereafter, the absorbance at 450 nm was measured with a plate reader and the cell survival rates were analyzed. The results are shown as survival rates. The survival rate of the control group in a medium alone without hydroxylated C60 fullerene was assumed to be 100%, and the survival rate of the hydroxylated C60 fullerene-administered groups is expressed as relative values against the control group.

Question: Which results are given for hydroxylated C60 fullerene?
Answer: Production of MMP-3 (MMP-3 [1]): inhibited in all cases; Production of MMP-3 (MMP-3 [1]; listed as fullerene): decreased the amount of MMP-3 produced; Inhibitory effect on production of MMP-3 (MMP-3 [1]; hypoxic condition): also observed; Production of MMP-1 (MMP-1): inhibited in all cases; Production of MMP-1 (MMP-1; listed as fullerene): decreased the amount of MMP-1 produced; Inhibitory effect on production of MMP-1 (MMP-1; hypoxic condition): also observed; Production of MMP-13 (MMP-13 [2]): inhibited in all cases; Production of MMP-13 (MMP-13 [2]; listed as fullerene): decreased the amount of MMP-13 produced; Inhibitory effect on production of MMP-13 (MMP-13 [2]; hypoxic condition): also observed; MMP-3 concentration in synovial fluid (MMP-3 [3]): No remarkable difference; Decrease of chondrocyte-proliferation ability (cultured chondrocytes): inhibited decrease of chondrocyte-proliferation ability; MMP-13 concentration in synovial fluid (MMP-13 [4]): MMP-13 production inhibitory effect was observed; Cell survival rate (%) ([5]; 1.0 μM, 48 hour incubation): 98.5 ± 6.5%; Cell survival rate (%) ([5]; 1.0 μM, 96 hour incubation): 99.6 ± 3.8%; Cell survival rate (%) ([5]; 10.0 μM, 48 hour incubation): 101.3 ± 5.8%; Cell survival rate (%) ([5]; 10.0 μM, 96 hour incubation): 98.2 ± 2.6%; Cell survival rate (%) ([5]; 100.0 μM, 48 hour incubation): 99.5 ± 4.2%; Cell survival rate (%) ([5]; 100.0 μM, 96 hour incubation): 103.4 ± 2.2%; Toxicity to chondrocytes ([5]; 1.0-100.0 μM, 48 or 96 hours): not to be toxic to chondrocytes
